Data on 27 compounds can be found in patent US9592224B2, “Substituted benzothiazoles and therapeutic uses thereof for the treatment of human diseases” (CONSEJO SUPERIOR DE INVESTIGACIONES CIENTÍFICAS, priority 2013, dated 2017).

Data set [1] has as its target T1, recombinant human enzyme CK-1δ (Homo sapiens, UniProt P48730).
T1 construct: purchased Millipore Iberica SAU
Kind of data set: Enzyme inhibition assay, Luminometer Kinase-GLO method, CK-1δ. As to conditions: for IC50: casein substrate, 4 μM ATP, 60 minutes at 30° C., read-out: Inhibitory Concentration 50 (IC50) CK-1δ. Format: biochemical. The protocol:
(§1) Enzyme inhibition assays were performed using the Luminometer Kinase-GLO® method. Recombinant human enzyme CK-1δ was purchased from Millipore Iberica SAU and recombinant human enzyme CK-1ε was purchased from Invitrogen. The phosphorylation substration chosen was casein. The Luminescent Kinase Kit (catalogue no. V6711) was obtained from Promega. ATP and other reagents were purchased from Sigma-Aldrich (St. Louis, Mo.).
(§2) The assays were conducted in buffer using 96-well plates. In a typical assay: 10 μL of the test compound (dissolved in dimethylsulfoxide at a concentration of 1 mM and, in turn, dissolved in buffer to the required concentration for the experiment) and 10 μL (16 ng) of the CK-1δ enzyme or 10 μL (50 ng) of the CK-1ε enzyme row were added to each well followed by 20 μL of buffer containing 0.1% casein as substrate and 4 μM of ATP. The assay buffer contained: 50 mM HEPES, pH 7.5; 0.01% Brij-35; 10 mM MgCl2; 1 mM EGTA and 0.01% NaN3. […] After incubating for 60 minutes at 30° C., the enzymatic reaction was stopped using 40 μL of Kinase-GLO® reagent. Luminescence was measured after ten minutes using a FLUOstar Optima (BMG Labtechnologies GmbH, Offenburg, Germany) multimode reader. The activity was proportional to the difference between the total and consumed ATP. Inhibition activities were calculated in accordance with the maximum activity measured in the absence of inhibitor. IC50 is defined as the concentration of each compound that reduces enzyme activity by 50% with respect to that obtained without inhibitor.
(Kinase-Glo measures the ATP left after a reaction by luminescence.)

A further data set is described as follows: in vitro. The conditions noted are these: pig, PAMPA, pH 7.4. The protocol: To filter the samples, PVDF membrane filters (diameter: 30 mm, pore size: 0.45 μm) were used.
Ten reference compounds were selected, whose blood-brain barrier passage is known and public, in order to validate the experiment. […] The solutions were filtered. Next, 180 μL of a PBS/ethanol (70/30) solution were added to each well of the acceptor plate. The donor plate was impregnated with 4 μL of a porcine brain lipid solution dissolved in dodecane (20 mg mL^−1). After 5 min, 180 μL of dissolution of each compound were added to this plate. Of the compounds whose penetration into the central nervous system was to be assessed, between 1-2 mg were taken and dissolved in 1,500 μL of ethanol and 3,500 μL of PBS (pH=7.4), filtered and added to the donor 96-well plate. The donor plate was then placed on the acceptor forming a kind of “sandwich” and allowed to incubate for 2 hours and 30 min at 25° C. The compounds, by passive transport, will move from the donor plate through the porcine brain lipid to the acceptor plate. After 2 hours and 30 min, it was carefully removed from the donor plate. The concentration and absorbance, both of the commercial compounds and the synthesised derivatives evaluated in the acceptor and donor plates were determined using a UV absorbance reader. Each sample was analysed at different wavelengths (3 to 5) in three wells and in at least two independent experiments.
A general note: In PAMPA a lipid-coated filter parts donor from acceptor wells.

Data set [2] concerns the target T2, recombinant human enzyme CK-1ε (Homo sapiens, UniProt P49674).
T2 construct: purchased Invitrogen
Kind of data set: Enzyme inhibition assay, Luminometer Kinase-GLO method, CK-1ε. The format is biochemical. As to conditions: for IC50: casein substrate, 4 μM ATP, 60 minutes at 30° C., read-out: Inhibitory Concentration 50 (IC50) CK-1ε. The protocol: as §1, §2

Each structure is given as a SMILES string.

T1 sequence (P48730 whole entry): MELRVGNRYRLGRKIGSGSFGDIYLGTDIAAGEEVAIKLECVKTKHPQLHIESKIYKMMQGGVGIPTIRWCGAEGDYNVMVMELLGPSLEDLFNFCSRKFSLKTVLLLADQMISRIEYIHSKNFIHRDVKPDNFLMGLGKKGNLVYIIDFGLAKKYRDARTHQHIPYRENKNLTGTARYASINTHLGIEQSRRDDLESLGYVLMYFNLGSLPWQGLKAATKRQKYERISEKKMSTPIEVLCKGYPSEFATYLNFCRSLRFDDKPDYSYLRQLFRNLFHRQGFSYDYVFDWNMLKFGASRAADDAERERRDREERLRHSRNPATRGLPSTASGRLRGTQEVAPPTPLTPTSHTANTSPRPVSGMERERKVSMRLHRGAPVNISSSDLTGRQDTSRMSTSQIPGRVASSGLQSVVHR
T2 sequence (P49674 whole entry): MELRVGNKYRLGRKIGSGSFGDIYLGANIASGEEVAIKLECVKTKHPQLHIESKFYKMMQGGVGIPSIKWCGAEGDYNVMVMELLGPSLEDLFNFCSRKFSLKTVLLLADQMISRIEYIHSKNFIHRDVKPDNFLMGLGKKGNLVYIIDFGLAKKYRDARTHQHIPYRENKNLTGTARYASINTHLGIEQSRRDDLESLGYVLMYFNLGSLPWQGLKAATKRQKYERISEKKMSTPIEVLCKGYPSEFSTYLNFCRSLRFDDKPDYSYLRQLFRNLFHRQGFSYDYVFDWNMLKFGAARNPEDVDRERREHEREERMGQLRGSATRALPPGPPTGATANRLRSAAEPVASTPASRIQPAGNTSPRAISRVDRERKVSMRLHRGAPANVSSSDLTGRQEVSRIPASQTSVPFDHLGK

On to `O=C(Cc1ccc(Cl)cc1)Nc1nc2ccc(C(F)(F)F)cc2s1` [Compound 1, N-(6-trifluoromethylbenzothiazole-2-yl)-2-(4-chlorophenyl)acetamide], for which the IC50 stood at 65 nM in data set [1] and 550 nM in data set [2]. The apparent permeability coefficient (Papp) at […] in “in vitro” stood at 9.6 ± 0.1 ×10⁻⁶ cm/s.
On to `COc1ccc(CC(=O)Nc2nc3ccc(C(F)(F)F)cc3s2)cc1` [Compound 3, N-(6-trifluoromethylbenzothiazole-2-yl)-2-(4-methoxyphenyl)acetamide], for which the results for the IC50 in data set [1] and in data set [2] were 33 nM and 700 nM, respectively. For the same compound, the Papp at […] in the data set “in vitro” came to 14.6 ± 0.1 ×10⁻⁶ cm/s.
Turning to `O=C(Cc1cccc(Cl)c1)Nc1nc2ccc(C(F)(F)F)cc2s1` [Compound 4, N-(6-trifluoromethylbenzothiazole-2-yl)-2-(3-chlorophenyl)acetamide], the IC50 is 23 nM in data set [1] and 840 nM in data set [2]. Moreover, the apparent permeability coefficient (Papp) at […] in the data set “in vitro” was determined as 5.9 ± 0.5 ×10⁻⁶ cm/s.
For `Cc1ccc2nc(NC(=O)Cc3cccc(Cl)c3)sc2c1` [Compound 5, N-(6-methylbenzothiazole-2-yl)-2-(3-chlorophenyl)acetamide] the same measures were 83 nM, 880 nM and 5.6 ± 0.8 ×10⁻⁶ cm/s.
For `COc1cccc(CC(=O)Nc2nc3ccc(C(F)(F)F)cc3s2)c1` [Compound 6, N-(6-trifluoromethylbenzothiazole-2-yl)-2-(3-methoxyphenyl)acetamide] the same measures were 42 nM, 690 nM and 11.2 ± 2 ×10⁻⁶ cm/s.
For `COc1ccccc1CC(=O)Nc1nc2ccc(C(F)(F)F)cc2s1` [Compound 8, N-(6-trifluoromethylbenzothiazole-2-yl)-2-(2-methoxyphenyl)acetamide] the same measures were 10 nM, 800 nM and 11.3 ± 2.1 ×10⁻⁶ cm/s.
In the case of `COc1cc(CC(=O)Nc2nc3ccc(C(F)(F)F)cc3s2)cc(OC)c1OC` [Compound 10], the IC50 was found to be 15 nM in data set [1] and 370 nM in data set [2]. For the same compound, the Papp at […] in “in vitro” came out at 10.6 ± 0.1 ×10⁻⁶ cm/s.
`O=C(Cc1ccccc1)Nc1nc2ccc(C(F)(F)F)cc2s1` [Compound 12, N-(6-trifluoromethylbenzothiazole-2-yl)-2-phenylacetamide]: the IC50 in data set [1] was determined as 47 nM; in data set [2], 760 nM. The compound also had a Papp at […] in the data set “in vitro” of 10.4 ± 3.9 ×10⁻⁶ cm/s.
`O=C(Cc1ccccc1)Nc1nc2ccccc2s1` [Compound 14, N-(benzothiazole-2-yl)-2-phenylacetamide]: the IC50 in data set [1] amounted to 330 nM; in data set [2], 2310 nM. The compound also displayed a Papp at […] in the data set “in vitro” of 12.7 ± 1.2 ×10⁻⁶ cm/s.
With `O=C(Cc1cccc(Cl)c1)Nc1nc2ccccc2s1` [Compound 20, N-(benzothiazole-2-yl)-2-(3-chlorophenyl)acetamide], the IC50 in data set [1] was 850 nM; in data set [2], 2860 nM. This compound also showed a Papp at […] in “in vitro” of 10.6 ± 0.3 ×10⁻⁶ cm/s.
With `NS(=O)(=O)c1ccc2nc(NC(=O)C(c3ccccc3)c3ccccc3)sc2c1` [Compound 41, N-(6-sulfamoylbenzothiazole-2-yl)-2,2-diphenylacetamide], the inhibition at 10 µM in data set [1] and in data set [2] was 10% each time.
For the compound `CCNS(=O)(=O)c1ccc2nc(NC(=O)C(c3ccccc3)c3ccccc3)sc2c1` [Compound 42, N-(6-(N-ethylsulfamoyl)benzothiazole-2-yl)-2,2-diphenylacetamide], the inhibition at 10 µM in data set [1] and in data set [2] was 10% each time.
Regarding `CCCCNS(=O)(=O)c1ccc2nc(NC(=O)C(c3ccccc3)c3ccccc3)sc2c1` [Compound 43, N-(6-(N-butylsulfamoyl)benzothiazole-2-yl)-2,2-diphenylacetamide], the inhibition at 10 µM in data set [1] and in data set [2] was 10% in each case.
On to `CCN(CC)S(=O)(=O)c1ccc2nc(NC(=O)C(c3ccccc3)c3ccccc3)sc2c1` [Compound 44, N-(6-(N,N-diethylsulfamoyl)benzothiazole-2-yl)-2,2-diphenylacetamide], for which the IC50 in data set [1] was 9830 nM; in data set [2], 3470 nM.
Consider `CCOc1ccc2nc(NC(=O)Cc3ccc(OC)cc3)sc2c1` [Compound 45, N-(6-ethoxybenzothiazole-2-yl)-2-(4-methoxyphenyl)acetamide], for which the IC50 worked out at 1090 nM in data set [1] and 9490 nM in data set [2].
Consider `COc1ccc(NC(=O)Nc2nc3ccc(C(F)(F)F)cc3s2)cc1` [Compound 46, N-(6-trifluoromethylbenzothiazole-2-yl)-N′-(4-methoxyphenyl)urea], for which the IC50 in data set [1] amounted to 5500 nM. Further, the inhibition at 10 µM in data set [2] worked out at 29%.
Take `O=C(CCc1cccc(Cl)c1)Nc1nc2ccccc2s1` [Compound 47, N-(benzothiazole-2-yl)-3-(3-chlorophenyl)propanamide]: the IC50 in data set [1] stood at 3580 nM. Also, the inhibition at 10 µM in data set [2] was found to be 31%.
In the case of `CCOc1ccc2nc(NC(=O)Cc3cccc(Cl)c3)sc2c1` [Compound 48, N-(6-ethoxybenzothiazole-2-yl)-2-(3-chlorophenyl)acetamide], the results for the IC50 in data set [1] and in data set [2] were 1210 nM and 9750 nM, respectively.
For `COc1ccc2nc(NC(=O)Cc3ccccc3Cl)sc2c1` [Compound 49, N-(6-methoxybenzothiazole-2-yl)-2-(2-chlorophenyl)acetamide], the IC50 in data set [1] is 9710 nM. Moreover, the inhibition at 10 µM in data set [2] turned out to be 30%.
For `CCOc1ccc2nc(NC(=O)Cc3ccccc3Cl)sc2c1` [Compound 50, N-(6-ethoxybenzothiazole-2-yl)-2-(2-chlorophenyl)acetamide] the same measures were 17400 nM and 20%.
`CCOc1ccc2nc(NC(=O)Cc3ccccc3OC)sc2c1` [Compound 52, N-(6-ethoxybenzothiazole-2-yl)-2-(2-methoxyphenyl)acetamide]: in data set [1], the IC50 worked out at 5760 nM. The inhibition at 10 µM in data set [2] was found to be 46%.
For `COc1ccc2nc(NC(=O)Cc3ccc(Cl)c(Cl)c3)sc2c1` [Compound 53, N-(6-methoxybenzothiazole-2-yl)-2-(3,4-dichlorophenyl)acetamide], the IC50 in data set [1] turned out to be 1240 nM; in data set [2], 16500 nM.
As for `CCOc1ccc2nc(NC(=O)Cc3ccc(Cl)c(Cl)c3)sc2c1` [Compound 54, N-(6-ethoxybenzothiazole-2-yl)-2-(3,4-dichlorophenyl)acetamide], the IC50 in data set [1] stood at 3430 nM; in data set [2], 14200 nM.
For the compound `COc1ccc2nc(NC(=O)Cc3cc(OC)c(OC)c(OC)c3)sc2c1` [Compound 55, N-(6-methoxybenzothiazole-2-yl)-2-(3,4,5-trimethoxyphenyl)acetamide], the IC50 amounted to 6650 nM in data set [1] and 17700 nM in data set [2].
For `CCOc1ccc2nc(NC(=O)Cc3cc(OC)c(OC)c(OC)c3)sc2c1` [Compound 56, N-(6-ethoxybenzothiazole-2-yl)-2-(3,4,5-trimethoxyphenyl)acetamide] the same measures were 1430 nM and 9830 nM.
Regarding `COc1cc(/C=C/C(=O)Nc2nc3ccc(S(=O)(=O)N(C)C)cc3s2)cc(OC)c1OC` [Compound 57, (E)-N-(6-(N,N-dimethylsulfamoyl)benzothiazole-2-yl)-3-(3,4,5-trimethoxyphenyl) acrylamide], the “CK-1δ inhibition % @ 10 μM” value in data set [1] (@ 10 μM) is recorded as 10% @. The “CK-1ε inhibition % @ 10 μM” value in data set [2] (@ 10 μM) is given as 10% @.
With `COc1ccccc1CC(=O)Nc1nc2ccc(F)cc2s1` [Compound 59, N-(6-fluorobenzothiazole-2-yl)-2-(2-methoxyphenyl)acetamide], the values for the IC50 in data set [1] and in data set [2] were 1170 nM and 4510 nM, respectively.

A word on the Papp: it is the rate of passage across a membrane or cell layer, normalised by area and donor concentration. What is called inhibition is how much of the control response was suppressed.
